From ChEMBL document CHEMBL1143406 (Antimicrob Agents Chemother, 2007) come the findings set out here.

Holding throughout (type): ADME, organism-based
Data set [1] can be described thus: Tmax in HIV-negative human at 600 mg, po administered every 24 hrs coadministered with 300 mg of atazanavir every 12 hrs. The following applies: in vivo.
Data set [2] in a line: Cmax in HIV-negative human at 600 mg, po administered every 24 hrs coadministered with 300 mg of atazanavir every 12 hrs. Set-up: dose 600 mg, route oral. The following applies: in vivo.
Data set [3] relates to Homo sapiens. Briefly: Terminal apparent distribution volume in HIV-negative human at 600 mg, po administered every 24 hrs coadministered with 300 mg of atazanavir every 12 hrs. The conditions noted are these: in vivo.
Data set [4] can be described thus: AUC (24 hrs) in HIV-negative human at 600 mg, po administered every 24 hrs coadministered with 300 mg of atazanavir every 12 hrs. Set-up: dose 600 mg, time < 24 hr, route oral. The conditions noted are these: plasma.
Data set [5] relates to Homo sapiens. Briefly: Terminal apparent distribution volume in HIV-negative human at 600 mg, po administered every 24 hrs coadministered with 400 mg of atazanavir every 12 hrs. The following applies: in vivo.
Data set [6] can be described thus: Apparent oral clearance in HIV-negative human at 600 mg, po administered every 24 hrs coadministered with 400 mg of atazanavir every 12 hrs. The following applies: in vivo.
Data set [7] is described as follows: Cmax in HIV-negative human at 600 mg, po administered every 24 hrs coadministered with 400 mg of atazanavir every 12 hrs. The conditions noted are these: in vivo. Set-up: dose 600 mg, route oral.
Data set [8] can be described thus: AUC (24 hrs) in HIV-negative human at 600 mg, po administered every 24 hrs coadministered with 400 mg of atazanavir every 12 hrs. The following applies: plasma. Details: time < 24 hr, dose 600 mg, route oral.
Data set [9] in a line: Tmax in HIV-negative human at 600 mg, po administered every 24 hrs coadministered with 400 mg of atazanavir every 12 hrs. The conditions noted are these: in vivo.
The nature of data set [10]: Apparent oral clearance in HIV-negative human at 600 mg, po administered every 24 hrs coadministered with 300 mg of atazanavir every 12 hrs. The following applies: in vivo.

Regarding `CO[C@H]1/C=C/O[C@@]2(C)Oc3c(C)c(O)c4c(O)c(c(/C=N/N5CCN(C)CC5)c(O)c4c3C2=O)NC(=O)/C(C)=C\C=C\[C@H](C)[C@H](O)[C@@H](C)[C@@H](O)[C@@H](C)[C@H](OC(C)=O)[C@@H]1C` [RIFAMPIN], the time to peak (Tmax) in data set [1] and in [9] was 2.7 h throughout. Moreover, the maximum concentration (Cmax) in data set [2] amounted to 9490 ng/mL; in data set [7] it was 10100 ng/mL. The Vbeta in the data set on Homo sapiens [3] came to 32 L; in the data set with Homo sapiens [5] it was 33 L. Moreover, the AUC at 24 h turned out to be 45700 ng·h/mL in data set [4] and 41700 ng·h/mL in [8]. Moreover, the CL/F is 275 mL/min in [6] and 252 mL/min in [10].

What is called Tmax is the time from dosing to the highest level. By Cmax is commonly meant the peak of the concentration-time curve. As usually defined, the AUC is concentration integrated over time. One may read the CL/F as clearance divided by bioavailability, as obtained after extravascular dosing.
